Test [1] has as its system MDA-MB-231Br3 cells. The test can be described thus: Resistance to chemotherapeutic reagents, brain metastatic vs parental cells (FIG. 1A). The class given is cell-based. The note with it: MDA-MB-231Br3 vs parental MDA-MB-231, triplicates.
Test [2] concerns MDA-MB-231Br3 cells. The test can be described thus: Cell survival assay (trypan blue uptake) in glucose-free medium. The class given is cell-based.
Protocol: By way of non-limiting example, to test the role of BCAAs in the survival of brain metastatic breast cancer cells, changes in the concentrations of BCAAs over time can be measured in MDA-MB-231 and MDA-MB-231Br3 cells when cultured in a glucose-free medium. […] To measure the ability of these two types of cells to oxidize BCAAs, ^14C-Leucine can be added to the culture media and the resulting ^14CO2 measured after 8 hours of incubation. […] To investigate the mechanism by which brain metastatic cells gain such higher activity of BCAA oxidation, the levels of the rate limiting enzymes of BCAA oxidation, branched chain ketoacids dehydrogenase E1 subunit (BCKDH-E1), the inactivated form of BCKDH-E1, pSer293-BCDKH-E1 (phosphorylated at serine 293 of the E1 subunit), the BCKDH inactivating kinase, and the branched chain ketoacids dehydrogenase kinase (BDK) can be determined in both brain metastatic cells and parental cells. […] Also, to test the pro-survival role of BCAAs in MDA-MB-231Br3 cells, BCAAs can be removed from the glucose-free medium containing glutamine. […] For these tests, trypanblue uptake can used to identify dead cells, and triplicates of samples can be used in each group.
Cells were seeded in 6-well plates in full MEM medium containing 5% dialyzed FBS and supplemented with 100 IU/ml penicillin and 100 μg/ml streptomycin (Invitrogen, CA, USA) and 292 ug/ml L-Glutamine (Invitrogen, CA, USA). Medium were replaced with modified MEM after 12 hours. Modified MEM contains basic formula of 5% dialyzed FBS and 100 IU/ml penicillin and 100 μg/ml streptomycin, other supplements like glutamine, glucose, etc. were added in the basic formula according to different needs of experimental groups. Both cell culture medium and trysinized cells were collected after 48 hours and stained with trypan blue. Viability counting was counted by Countess® Automated Cell Counter (Invitrogen, CA, USA).

Structures are written as SMILES.

On to `COc1cccc2c1C(=O)c1c(O)c3c(c(O)c1C2=O)C[C@@](O)(C(=O)CO)C[C@@H]3O[C@H]1C[C@H](N)[C@H](O)[C@H](C)O1` [adriamycin], for which, in the test with MDA-MB-231Br3 cells [1], the “resistance of MDA-MB-231Br3 cells to chemotherapeutic reagent relative to parental cells” value is listed as “more resistance”. Take `O=C(O[C@@H]1Cc2c(O)cc(O)cc2O[C@@H]1c1cc(O)c(O)c(O)c1)c1cc(O)c(O)c(O)c1` [EGCG, epigallocatechin gallate]: the “cell death upon inhibition of GLUD” value in the test with MDA-MB-231Br3 cells [2] (MDA-MB-231Br3 cells cultured in glucose-free medium, trend reverted upon addition of α-KG, FIG. 2D) was “dose dependent cell death”. Moreover, the “effect of incremental removal of BCAAs on sensitivity to GLUD inhibition” value with MDA-MB-231Br3 cells [2] (MDA-MB-231Br3 cells, glucose-free medium, 24 hour treatment, FIG. 3G) is listed as “significantly sensitizes”. In the test with MDA-MB-231Br3 cells [2] (in the absence of glucose, FIG. 2D), the “sensitivity to GLUD inhibition, brain metastatic cells vs parental MDA-MB-231 cells” value is “more sensitive”. As for `CC(=O)O[C@H]1C(=O)[C@@]2(C)[C@H]([C@H](OC(=O)c3ccccc3)[C@]3(O)C[C@H](OC(=O)[C@H](O)[C@@H](NC(=O)c4ccccc4)c4ccccc4)C(C)=C1C3(C)C)[C@]1(OC(C)=O)CO[C@@H]1C[C@@H]2O` [Taxol], in the test on MDA-MB-231Br3 cells [1], the “resistance of MDA-MB-231Br3 cells to chemotherapeutic reagent relative to parental cells” value was “more resistance”.

Source of the values: patent US9522139B2, “Fructose 1, 6-biphosphatases as new targets for diagnosing and treating breast cancer brain metastasis” (The University of Houston System, priority 2011, dated 2016).
